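Five concentrations, 48 hours, 96-well plates. At the GI50, growth is halved. TGI: total growth inhibition.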
Columns and labels:
Assay in all cases: DTP human tumour cell line panel, 48 h
[1] = test system: NCI/ADR-RES ovarian
[2] = test system: NCI-H23 lung
[3] = test system: MCF7 breast
[4] = test system: LOX IMVI melanoma
[5] = test system: SF-295 CNS
[6] = test system: OVCAR-5 ovarian
[7] = test system: A498 renal
[8] = test system: HCT-15 colon
[9] = test system: KM12 colon
[10] = test system: OVCAR-4 ovarian
[11] = test system: SR leukemia
[12] = test system: K-562 leukemia
[13] = test system: A549 NSCLC
[14] = test system: IGROV1 ovarian
[15] = test system: SN12C renal
[16] = test system: CCRF-CEM leukemia
[17] = test system: 786-0 renal
[18] = test system: NCI-H226 lung
[19] = test system: OVCAR-3 ovarian
[20] = test system: SNB-75 CNS
[21] = test system: TK-10 renal
[22] = test system: HCC-2998 colon
[23] = test system: DU-145 prostate
[24] = test system: COLO 205 colon
[25] = test system: M14 melanoma
[26] = test system: MALME-3M melanoma
[27] = test system: ACHN renal
[28] = test system: HOP-92 NSCLC
[29] = test system: PC-3 prostate

How did the TGI [1] turn out when `COc1ccc(-c2cc(-c3ccccc3)nc(SCCCC(=O)NO)n2)cc1OC` was run?
The TGI was 4.35 µM.

What about the GI50 [2] of the same compound?
The GI50 was 1.57 µM.

And the TGI [2]?
Its TGI is 4.8 µM.

And the GI50 [3]?
The GI50 was 2.3 µM.

What about the TGI [3] of the same compound?
The TGI was 9.63 µM.

And the GI50 [4]?
Its GI50 is 1.07 µM.

And the TGI [4]?
Its TGI is 2.44 µM.

And the GI50 [5]?
Its GI50 is 0.887 µM.

And the TGI [5]?
The TGI was 2.51 µM.

What about the GI50 [6] of the same compound?
The GI50 was 1.16 µM.

What about the TGI [6] of the same compound?
Its TGI is 5.43 µM.

What about the GI50 [7] of the same compound?
The GI50 was 0.345 µM.

What about the TGI [7] of the same compound?
The TGI was 1.72 µM.

And the GI50 [8]?
Its GI50 is 0.406 µM.

And the TGI [8]?
Its TGI is 2.62 µM.

What about the GI50 [9] of the same compound?
The GI50 was 2.83 µM.

And the TGI [9]?
The TGI was 11 µM.

And the GI50 [10]?
The GI50 was 1.68 µM.

What about the TGI [10] of the same compound?
Its TGI is 7.76 µM.

What about the GI50 [11] of the same compound?
Its GI50 is 0.339 µM.

What about the TGI [11] of the same compound?
The TGI was 20.4 µM.

And the GI50 [12]?
Its GI50 is 0.812 µM.

And the TGI [12]?
Its TGI is greater than 100 µM.

What about the GI50 [13] of the same compound?
The GI50 was 2.06 µM.

And the TGI [13]?
The TGI was 7.05 µM.

And the GI50 [14]?
Its GI50 is 1.64 µM.

What about the TGI [14] of the same compound?
The TGI was 5.05 µM.

And the GI50 [15]?
The GI50 was 1.54 µM.

What about the TGI [15] of the same compound?
Its TGI is 6.15 µM.

And the GI50 [16]?
Its GI50 is 0.398 µM.

And the TGI [16]?
Its TGI is 11.1 µM.

What about the GI50 [17] of the same compound?
The GI50 was 1.28 µM.

What about the TGI [17] of the same compound?
Its TGI is 5.02 µM.

And the GI50 [18]?
Its GI50 is 1.69 µM.

And the TGI [18]?
Its TGI is 5.54 µM.

And the GI50 [19]?
The GI50 was 1.32 µM.

And the TGI [19]?
The TGI was 5.36 µM.

What about the GI50 [20] of the same compound?
Its GI50 is 1.09 µM.

And the TGI [20]?
Its TGI is 4.51 µM.

And the GI50 [21]?
The GI50 was 0.409 µM.

What about the TGI [21] of the same compound?
The TGI was 8.87 µM.

And the GI50 [22]?
Its GI50 is 1.44 µM.

What about the TGI [22] of the same compound?
The TGI was 3.59 µM.

What about the GI50 [23] of the same compound?
Its GI50 is 1.41 µM.

And the TGI [23]?
The TGI was 6.85 µM.

What about the GI50 [24] of the same compound?
Its GI50 is 2.1 µM.

And the TGI [24]?
The TGI was 5.95 µM.

And the GI50 [25]?
The GI50 was 1.02 µM.

And the TGI [25]?
The TGI was 2.82 µM.

What about the GI50 [26] of the same compound?
Its GI50 is 0.761 µM.

And the TGI [26]?
The TGI was 5.71 µM.

And the GI50 [27]?
Its GI50 is 0.41 µM.

What about the TGI [27] of the same compound?
The TGI was 1.81 µM.

What about the GI50 [28] of the same compound?
Its GI50 is 1.14 µM.

What about the TGI [28] of the same compound?
Its TGI is 3.99 µM.

And the GI50 [29]?
Its GI50 is 1.39 µM.

And the TGI [29]?
Its TGI is 5.62 µM.

— PubChem BioAssay (NCI)
